What was measured:
Test in all cases: relative viability (nuclei count vs DMSO), 5 days (fraction); higher = more cells survive
Fedratinib + Phenformin = compound: Cc1cnc(Nc2ccc(OCCN3CCCC3)cc2)nc1Nc1cccc(S(=O)(=O)NC(C)(C)C)c1 [Fedratinib] + N=C(N)NC(=N)NCCc1ccccc1 [Phenformin] (partner 250 µM)
Outline: (§1)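 Five library-drug doses in √10 steps were combined with a fixed anchor-drug dose, or a single drug was given alone, by pin tool to lung cancer cell lines in 1536-well plates the day after seeding. Nuclei were stained and counted after 5 days. Relative viability is the nuclei count in treated wells over that in vehicle wells, taken as the median of duplicate plates.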

GW-2580 + Pictilisib = compound: COC1=CC=C(C=C1)COC2=C(C=C(C=C2)CC3=CN=C(N=C3N)N)OC [GW-2580] + CS(=O)(=O)N1CCN(Cc2cc3nc(-c4cccc5[nH]ncc45)nc(N4CCOCC4)c3s2)CC1 [Pictilisib] (partner 1 µM)
Outline: as §1

GW-2580 + Lapatinib = compound: COC1=CC=C(C=C1)COC2=C(C=C(C=C2)CC3=CN=C(N=C3N)N)OC [GW-2580] + CS(=O)(=O)CCNCc1ccc(-c2ccc3ncnc(Nc4ccc(OCc5cccc(F)c5)c(Cl)c4)c3c2)o1 [Lapatinib] (partner 2 µM)
Outline: as §1

Fedratinib + Luminespib = compound: Cc1cnc(Nc2ccc(OCCN3CCCC3)cc2)nc1Nc1cccc(S(=O)(=O)NC(C)(C)C)c1 [Fedratinib] + CCNC(=O)c1noc(-c2cc(C(C)C)c(O)cc2O)c1-c1ccc(CN2CCOCC2)cc1 [Luminespib] (partner 0.01 µM)
Outline: as §1

Fedratinib + Alpelisib = compound: Cc1cnc(Nc2ccc(OCCN3CCCC3)cc2)nc1Nc1cccc(S(=O)(=O)NC(C)(C)C)c1 [Fedratinib] + Cc1nc(NC(=O)N2CCC[C@H]2C(N)=O)sc1-c1ccnc(C(C)(C)C(F)(F)F)c1 [Alpelisib] (partner 2 µM)
Outline: as §1

Fedratinib + Lapatinib = compound: Cc1cnc(Nc2ccc(OCCN3CCCC3)cc2)nc1Nc1cccc(S(=O)(=O)NC(C)(C)C)c1 [Fedratinib] + CS(=O)(=O)CCNCc1ccc(-c2ccc3ncnc(Nc4ccc(OCc5cccc(F)c5)c(Cl)c4)c3c2)o1 [Lapatinib] (partner 2 µM)
Outline: as §1

Cell Line | relative viability (Fedratinib + Phenformin; first compound 0.1 µM) | relative viability (Fedratinib + Phenformin; first compound 0.3162 µM) | relative viability (Fedratinib + Phenformin; first compound 1 µM) | relative viability (GW-2580 + Pictilisib; first compound 0.08 µM) | relative viability (GW-2580 + Pictilisib; first compound 0.8 µM) | relative viability (GW-2580 + Pictilisib; first compound 2.53 µM) | relative viability (GW-2580 + Pictilisib; first compound 8 µM) | relative viability (GW-2580 + Lapatinib; first compound 0.08 µM) | relative viability (GW-2580 + Lapatinib; first compound 0.8 µM) | relative viability (GW-2580 + Lapatinib; first compound 2.53 µM) | relative viability (GW-2580 + Lapatinib; first compound 8 µM) | relative viability (Fedratinib + Luminespib; first compound 0.1 µM) | relative viability (Fedratinib + Luminespib; first compound 0.3162 µM) | relative viability (Fedratinib + Luminespib; first compound 1 µM) | relative viability (Fedratinib + Alpelisib; first compound 0.1 µM) | relative viability (Fedratinib + Alpelisib; first compound 0.3162 µM) | relative viability (Fedratinib + Alpelisib; first compound 1 µM) | relative viability (Fedratinib + Lapatinib; first compound 0.1 µM) | relative viability (Fedratinib + Lapatinib; first compound 0.3162 µM) | relative viability (Fedratinib + Lapatinib; first compound 1 µM)
HCC-44 | 0.123 | 0.293 | 0.163 | 0.688 | 0.717 | 0.582 | 0.619 | 1.12 | 1.06 | 0.923 | 1.04 | 1.01 | 0.974 | 0.972 | 0.759 | 0.771 | 0.801 | 1.04 | 0.911 | 0.901
HCC-827 | 0.388 | 0.42 | 0.464 | 1.01 | 1.01 | 0.949 | 0.963 | 0.225 | 0.211 | 0.167 | 0.152 | 0.436 | 0.698 | 0.492 | 1.04 | 0.95 | 1.02 | 0.187 | 0.181 | 0.22
NCI-H1623 | 0.474 | 0.59 | 0.551 |  |  |  |  |  |  |  |  | 0.703 | 0.485 | 0.505 |  |  |  |  |  | 
NCI-H2347 | 0.508 | 0.225 | 0.494 | 0.662 | 0.992 | 0.592 | 0.717 | 1.02 | 1.03 | 0.805 | 0.936 | 0.33 | 0.401 | 0.59 | 1.04 | 1.04 | 1 | 1.03 | 0.998 | 0.882
PC-14 | 0.427 | 0.676 | 0.386 | 0.909 | 1.03 | 0.781 | 0.725 | 0.379 | 0.35 | 0.307 | 0.268 |  | 0.172 | 0.14 | 0.915 | 0.961 | 0.916 | 0.261 | 0.351 | 0.249
NCI-H1651 | 0.287 | 0.318 | 0.247 | 0.65 | 0.707 | 0.597 | 0.599 | 1.08 | 0.909 | 0.778 | 0.956 | 0.764 | 0.716 | 1.09 | 1.16 | 1.01 | 0.9 | 0.817 | 0.813 | 0.118
HARA | 0.364 | 0.448 | 0.411 | 0.459 | 0.513 | 0.344 | 0.405 | 0.757 | 0.902 | 0.535 | 0.63 | 0.103 | 0.766 | 0.539 | 0.84 | 0.793 | 0.743 | 0.75 | 0.627 | 0.384
NCI-H1650 |  | 0.495 | 0.234 | 0.644 | 0.564 | 0.454 | 0.601 | 0.822 | 0.895 | 0.677 | 0.781 |  | 0.186 | 0.2 |  |  |  | 0.548 | 0.925 | 0.183
NCI-H1395 | 0.392 | 0.378 | 0.47 | 0.626 | 0.584 | 0.561 | 0.632 | 0.994 | 0.95 | 0.88 | 0.912 | 0.661 | 0.868 | 0.62 | 0.885 | 1 | 1.39 | 0.911 | 1.11 | 0.786
LU99A | 0.864 | 0.894 | 0.755 | 0.274 | 0.322 | 0.251 | 0.294 | 1.07 | 1.14 | 0.698 | 1.01 | 0.271 | 0.302 | 0.216 | 0.55 | 0.518 | 0.387 | 1.08 | 0.988 | 0.321
NCI-H1355 | 0.379 | 0.467 | 0.327 | 0.476 | 0.43 | 0.274 | 0.421 | 1.08 | 1.2 | 0.817 | 1.01 | 0.59 | 0.702 | 0.696 | 0.731 | 0.853 | 0.832 | 0.734 | 1.04 | 0.962
HCC-78 | 0.698 | 0.703 | 0.572 | 0.242 | 0.245 | 0.171 | 0.227 | 0.917 | 1.37 | 0.439 | 0.752 |  |  |  | 0.324 |  | 0.34 | 0.929 |  | 0.609
NCI-H1563 | 0.658 | 0.693 | 0.637 | 0.686 | 0.661 | 0.655 | 0.642 | 0.895 | 0.857 | 0.831 | 0.863 | 0.472 | 0.504 | 0.516 | 0.853 | 0.909 | 0.916 | 0.915 | 1.07 | 0.65
HCC-15 | 0.43 | 0.464 | 0.399 | 0.79 | 0.824 | 0.653 | 0.677 | 0.87 | 1.08 | 0.807 | 0.866 | 0.114 | 0.247 | 0.381 | 0.746 | 0.793 | 0.758 | 0.879 | 0.876 | 0.446
EKVX | 0.251 | 0.265 | 0.246 | 0.395 | 0.448 | 0.395 | 0.5 | 0.181 | 0.236 | 0.189 | 0.18 | 0.888 | 0.866 | 0.934 | 0.898 | 1.04 | 0.931 | 0.209 | 0.206 | 0.252
NCI-H2087 | 0.45 | 0.477 | 0.379 | 1.04 | 1.03 | 0.61 | 0.767 | 1.43 | 1.18 | 1.04 | 0.991 | 0.17 | 0.18 | 0.14 | 1.03 | 1.05 | 0.963 | 1.25 | 1.31 | 0.303
